For orientation: pKi means −log10 of the Ki, conventionally taken in molar units.

pKi: −log10 of the molar value.

The text below walks through data of US6777422B2, “Substituted tetrahydroisoquinolines as C5a receptor modulators” (Neurogen Corp., priority 2002, dated 2004).

The target of this experiment is T1, human C5a receptor (Homo sapiens, UniProt P21730).
T1 construct: endogenous in cells; host or cells: U937 cells differentiated with 1 mM dibutyryl cAMP
T1 sequence (P21730 1-350): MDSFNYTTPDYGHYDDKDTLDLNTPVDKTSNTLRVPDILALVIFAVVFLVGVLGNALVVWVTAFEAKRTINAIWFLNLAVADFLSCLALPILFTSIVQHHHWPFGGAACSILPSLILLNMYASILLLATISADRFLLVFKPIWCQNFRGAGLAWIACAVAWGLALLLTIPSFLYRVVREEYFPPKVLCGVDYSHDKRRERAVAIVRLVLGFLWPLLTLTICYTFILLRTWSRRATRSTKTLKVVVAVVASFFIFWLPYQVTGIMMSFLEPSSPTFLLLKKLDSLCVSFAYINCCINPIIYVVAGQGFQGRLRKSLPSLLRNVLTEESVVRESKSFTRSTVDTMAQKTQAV
The experiment can be described thus: C5a receptor mediated calcium mobilization assay (Example 20). It counts as cell-based. Conditions: differentiated U937 cells, read-out: Ca2+ (Ki in the standard assay of C5a receptor mediated calcium mobilization). As for the experimental part:
Calcium Mobilization Assays
U937 cells are grown in differentiation media (1 mM dibutyryl cAMP in RPMI 1640 medium containing 10% fetal bovine serum) for 48 hrs at 37° C. then reseeded onto 96-well plates suitable for use in a FLIPR™ Plate Reader (Molecular Devices Corp., Sunnyvale Calif.). Cells are grown an additional 24 hours (to 70-90% confluence) before the assay. The cells are then washed once with Krebs Ringer solution. FLUO-3 calcium sensitive dye (Molecular Probes, Inc. Eugene, Oreg.) is added to 10 μg/mL and incubated with the cells at room temperature for 1 to 2 hours. The 96 well plates are then washed to remove excess dye. Fluorescence responses, measured by excitation at 480 nm and emission at 530 nm, are monitored upon the addition of human C5a to the cells to a final concentration of 0.01-30.0 nM, using the FLIPR™ device (Molecular Devices).
C. Assays for the Identification of Receptor Modulatory Agents: Antagonists and Agonists
The calcium mobilization assay described above may be readily adapted for identifying test compounds that have agonist or antagonist activity at the human C5a receptor.
For example, in order to identify antagonist compounds, differentiated U937 cells are washed and incubated with Fluo-3 dye as described above. One hour prior to measuring the fluorescence signal, a subset of the cells is incubated with 1 μM of at least one compound to be tested. The fluorescence response upon the subsequent addition of 0.3 nM (final concentration) human recombinant C5a is monitored using the FLIPR™ plate reader. Antagonist compounds elicit at least a 2-fold decrease in the fluorescence response relative to that measured in the presence of human C5a alone. Preferred antagonist compounds elicit at least a 5-fold, preferably at least a 10-fold, and more preferably at least a 20-fold decrease in the fluorescence response relative to that measured in the presence of human C5a alone.
Regarding `COc1ccc2c(c1)CC(N(Cc1ccccc1F)C(=O)CN1CCc3ccccc3C1c1ccccc1C(F)(F)F)C2` (centres unmarked) [Compound 94, N-(2-fluorobenzyl)-N-(5-methoxy-indan-2-yl)-2-[1-[2-(trifluoromethyl)phenyl]-3,4-dihydroisoquinolin-2(1H)-yl]acetamide], the pKi is over 6.00.

On to `O=C(CN1CCc2ccccc2C1c1cccc(C(F)(F)F)c1)N(Cc1ccccc1F)C1Cc2ccccc2C1` (centres unmarked) [Compound 50, N-(indan-2-yl)-N-(2-fluorobenzyl)-2-[1-[3-(trifluoromethyl)phenyl]-3,4-dihydroisoquinolin-2(1H)-yl]acetamide], for which the pKi is over 6.00.

Turning to `O=C(CN1CCc2ccccc2C1c1cccc2cccnc12)N(Cc1ccccc1F)C1Cc2ccccc2C1` (centres unmarked) [Compound 62, N-(indan-2-yl)-N-(2-fluorobenzyl)-2-(1-quinolin-8-yl-3,4-dihydroisoquinolin-2(1H)-yl)acetamide], the negative logarithm of the Ki (pKi) was over 6.00.

For `Cc1ccccc1[C@@H]1c2ccccc2CCN1[C@@H](C)C(=O)N(Cc1ccccc1F)C1Cc2ccccc2C1` (stereo in doubt) [Compound 34, (2S)-N-(indan-2-yl)-N-(2-fluorobenzyl)-2-[(1R)-1-(2-methylphenyl)-3,4-dihydroisoquinolin-2(1H)-yl]propanamide], the negative-log Ki (pKi) was over 6.00.

On to `O=C(CN1CCc2ccccc2C1c1c(F)cccc1Cl)N(Cc1ccccc1F)C1Cc2ccccc2C1` (centres unmarked) [Compound 96, 2-[1-(2-chloro-6-fluorophenyl)-3,4-dihydroisoquinolin-2(1H)-yl]-N-(indan-2-yl)-N-(2-fluorobenzyl)acetamide], for which the pKi is over 6.00.

`COC(=O)c1ccc(C2c3ccccc3CCN2CC(=O)N(Cc2ccccc2F)C2Cc3ccccc3C2)cc1` (centres unmarked) [Compound 76, methyl 4-(2-{2-[indan-2-yl(2-fluorobenzyl)amino]-2-oxoethyl}-1,2,3,4-tetrahydroisoquinolin-1-yl)benzoate]: the negative logarithm of the Ki (pKi) was over 6.00.

Regarding `COc1cncc(CN(C(=O)[C@H](C)N2CCc3ccccc3[C@@H]2c2cccc3ccccc23)C2Cc3ccccc3C2)c1` [Compound 127, (2S)-N-(indan-2-yl)-N-[(5-methoxypyridin-3-yl)methyl]-2-[(1R)-1-(1-naphthyl)-3,4-dihydroisoquinolin-2(1H)-yl]propanamide], the pKi is over 6.00.

On to `Cc1ccccc1C1c2c(Cl)cccc2CCN1CC(=O)N(Cc1ccccc1F)C1Cc2ccccc2C1` (centres unmarked) [Compound 116, 2-[8-chloro-1-(2-methylphenyl)-3,4-dihydroisoquinolin-2(1H)-yl]-N-(indan-2-yl)-N(2-fluorobenzyl)acetamide], for which the pKi was over 6.00.

`C[C@@H](C(=O)N(Cc1ccccc1F)C1Cc2ccccc2C1)N1CCc2ccccc2[C@@H]1c1ccccc1Cl` [Compound 64, (2S)-2-[(1R)-1-(2-chlorophenyl)-3,4-dihydroisoquinolin-2(1H)-yl]-N-(indan-2-yl)-N-(2-fluorobenzyl)propanamide]: the negative-log Ki (pKi) is over 6.00.

On to `COc1cccc(CN(Cc2ccccc2F)C(=O)[C@H](C)N2CCc3ccccc3[C@@H]2c2cccc3ccccc23)n1` [Compound 125, (2S)-N-(2-fluorobenzyl)-N-[(6-methoxypyridin-2-yl)methyl]-2-[(1R)-1-(1-naphthyl)-3,4-dihydroisoquinolin-2(1H)-yl]propanamide], for which the pKi is over 6.00.

As for `COc1ncccc1CN(C(=O)[C@H](C)N1CCc2ccccc2[C@@H]1c1cccc2ccccc12)C1Cc2ccccc2C1` [Compound 121, (2S)-N-(indan-2-yl)-N-[(2-methoxypyridin-3-yl)methyl]-2-[(1R)-1-(1-naphthyl)-3,4-dihydroisoquinolin-2(1H)-yl]propanamide], the pKi is over 6.00.

Turning to `O=C(CN1CCc2ccccc2C1c1c(F)cccc1F)N(Cc1ccccc1F)C1Cc2ccccc2C1` (centres unmarked) [Compound 81, 2-[1-(2,6-difluorophenyl)-3,4-dihydroisoquinolin-2(1H)-yl]-N-(indan-2-yl)-N-(2-fluorobenzyl)acetamide], the pKi was over 6.00.

In the case of `Cc1cccc(C)c1[C@H]1c2ccccc2CCN1[C@@H](C)C(=O)N(Cc1ccccc1F)C1Cc2ccccc2C1` [Compound 71, (2S)-N-(indan-2-yl)-2-[(1R)-1-(2,6-dimethylphenyl)-3,4-dihydroisoquinolin-2(1H)-yl]-N-(2-fluorobenzyl)propanamide], the pKi is over 6.00.

With `O=C(CN1CCc2ccccc2C1c1cccc(F)c1F)N(Cc1ccccc1F)C1Cc2ccccc2C1` (centres unmarked) [Compound 74, 2-[1-(2,3-difluorophenyl)-3,4-dihydroisoquinolin-2(1H)-yl]-N-(indan-2-yl)-N-(2-fluorobenzyl)acetamide], the pKi was over 6.00.

As for `Cc1ccccc1[C@H]1c2ccccc2CCN1CC(=O)N(Cc1cccc(O)c1)C1Cc2ccccc2C1` [Compound 113, N-(indan-2-yl)-N-(3-hydroxybenzyl)-2-[(1S)-1-(2-methylphenyl)-3,4-dihydroisoquinolin-2(1H)-yl]acetamide], the pKi was over 6.00.

For the compound `O=C(CN1CCc2ccccc2C1c1ccccc1-c1ccccc1)N(Cc1ccccc1F)C1Cc2ccccc2C1` (centres unmarked) [Compound 43, 2-[1-(1,1′-biphenyl-2-yl)-3,4-dihydroisoquinolin-2(1H)-yl]-N-(indan-2-yl)-N-(2-fluorobenzyl)acetamide], the negative-log Ki (pKi) was over 6.00.

Take `Cc1ccccc1C1c2ccccc2CCN1CC(=O)N(Cc1ccc(C(=O)O)cc1)C1Cc2ccccc2C1` (centres unmarked) [Compound 88, 4-[(indan-2-yl{[1-(2-methylphenyl)-3,4-dihydroisoquinolin-2(1H)-yl]acetyl}amino)methyl] benzoic acid]: the pKi was over 6.00.

On to `COc1cccc(CN(C(=O)CN2CCc3ccccc3C2c2ccccc2C)C2Cc3ccccc3C2)c1` (centres unmarked) [Compound 79, N-(indan-2-yl)-N-(3-methoxybenzyl)-2-[1-(2-methylphenyl)-3,4-dihydroisoquinolin-2(1H)-yl]acetamide], for which the negative-log Ki (pKi) was over 6.00.

`Cc1ccc(F)c(C2c3ccccc3CCN2CC(=O)N(Cc2ccccc2F)C2Cc3ccccc3C2)c1` (centres unmarked) [Compound 66, N-(indan-2-yl)-N-(2-fluorobenzyl)-2-[1-(2-fluoro-5-methylphenyl)-3,4-dihydroisoquinolin-2(1H)-yl]acetamide]: the negative logarithm of the Ki (pKi) is over 6.00.

In the case of `Cc1ccc(C2c3ccccc3CCN2CC(=O)N(Cc2ccccc2F)C2Cc3ccccc3C2)cc1F` (centres unmarked) [Compound 61, N-(indan-2-yl)-N-(2-fluorobenzyl)-2-[1-(3-fluoro-4-methylphenyl)-3,4-dihydroisoquinolin-2(1H)-yl]acetamide], the pKi was over 6.00.

Consider `Cc1ccccc1C1c2ccccc2[C@@H](C)CN1CC(=O)N(Cc1ccccc1F)C1Cc2ccccc2C1` (stereo partly drawn) [Compound 27, N-(indan-2-yl)-N-(2-fluorobenzyl)-2-[(4R)-4-methyl-1-(2-methylphenyl)-3,4-dihydroisoquinolin-2(1H)-yl]acetamide], for which the negative logarithm of the Ki (pKi) was over 6.00.

In the case of `COc1cccc2c1C(c1ccccc1C)N(CC(=O)N(Cc1ccccc1F)C1Cc3ccccc3C1)CC2` (centres unmarked) [Compound 14, N-(indan-2-yl)-N-(2-fluorobenzyl)-2-[8-methoxy-1-(2-methylphenyl)-3,4-dihydroisoquinolin-2(1H)-yl]acetamide], the pKi is over 6.00.

As for `Cc1c(F)cccc1C1c2ccccc2CCN1CC(=O)N(Cc1ccccc1F)C1Cc2ccccc2C1` (centres unmarked) [Compound 48, N-(indan-2-yl)-N-(2-fluorobenzyl)-2-[1-(3-fluoro-2-methylphenyl)-3,4-dihydroisoquinolin-2(1H)-yl]acetamide], the pKi was over 6.00.
